Laboratory results taken from ChEMBL document CHEMBL1641539 (Bioorg Med Chem Lett, 2011).

Experiments:
[1] = target: Tyrosine-protein kinase ZAP-70 (Homo sapiens) (UniProt P43403); assay: Inhibition of human ZAP-70 at 10 uM after 60 mins by TR-FRET assay; values are per cent of control
[2] = target: Protein kinase C gamma type (Homo sapiens) (UniProt P05129); assay: Inhibition of human PKCgamma at 10 uM after 60 mins by TR-FRET assay; values are per cent of control
[3] = target: Discoidin domain-containing receptor 2 (Homo sapiens) (UniProt Q16832); assay: Inhibition of human DDR2 at 10 uM after 60 mins by TR-FRET assay; values are per cent of control
[4] = target: T1, Aurora kinase A (Homo sapiens) (UniProt O14965); assay: Inhibition of human Aurora-A at 10 uM after 60 mins by TR-FRET assay; values are per cent of control
T1 sequence (whole entry): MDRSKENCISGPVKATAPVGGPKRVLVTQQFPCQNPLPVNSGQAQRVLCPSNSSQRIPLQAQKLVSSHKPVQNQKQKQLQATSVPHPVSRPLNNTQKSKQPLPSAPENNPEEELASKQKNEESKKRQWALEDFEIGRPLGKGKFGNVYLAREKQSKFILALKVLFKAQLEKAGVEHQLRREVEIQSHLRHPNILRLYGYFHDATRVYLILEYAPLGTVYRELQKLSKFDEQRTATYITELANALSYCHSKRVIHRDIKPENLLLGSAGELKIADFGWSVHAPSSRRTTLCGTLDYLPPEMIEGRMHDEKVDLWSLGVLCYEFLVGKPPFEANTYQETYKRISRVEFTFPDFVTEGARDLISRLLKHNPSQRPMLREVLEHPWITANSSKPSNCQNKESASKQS

[5] = system: Epidermal growth factor receptor (Homo sapiens), P00533 [T790M]; assay: Inhibition of human EGFR T790M mutant at 10 uM after 60 mins by TR-FRET assay; format: protein assay; settings: values are per cent of control
[6] = target: Serine/threonine-protein kinase N2 (Homo sapiens) (UniProt Q16513); assay: Inhibition of human PRK2 at 10 uM after 60 mins by TR-FRET assay; values are per cent of control
[7] = target: Ribosomal protein S6 kinase beta-1 (Homo sapiens) (UniProt P23443); assay: Inhibition of human p70S6K at 10 uM after 60 mins by TR-FRET assay; values are per cent of control
[8] = species on record: Rattus norvegicus; assay: Inhibition of rat CaMK2 at 10 uM after 60 mins by TR-FRET assay; values are per cent of control
[9] = system: Tyrosine-protein kinase ABL1 (Homo sapiens), P00519 [Y253F]; assay: Inhibition of human Abl Y253F mutant at 10 uM after 60 mins by TR-FRET assay; values are per cent of control
[10] = system: Proto-oncogene tyrosine-protein kinase receptor Ret (Homo sapiens), P07949 [V804M]; assay: Inhibition of human Ret V804M mutant at 10 uM after 60 mins by TR-FRET assay; values are per cent of control
Proto-oncogene tyrosine-protein kinase receptor Ret (Homo sapiens), P07949 [V804M], sequence (P07949 whole entry V804M): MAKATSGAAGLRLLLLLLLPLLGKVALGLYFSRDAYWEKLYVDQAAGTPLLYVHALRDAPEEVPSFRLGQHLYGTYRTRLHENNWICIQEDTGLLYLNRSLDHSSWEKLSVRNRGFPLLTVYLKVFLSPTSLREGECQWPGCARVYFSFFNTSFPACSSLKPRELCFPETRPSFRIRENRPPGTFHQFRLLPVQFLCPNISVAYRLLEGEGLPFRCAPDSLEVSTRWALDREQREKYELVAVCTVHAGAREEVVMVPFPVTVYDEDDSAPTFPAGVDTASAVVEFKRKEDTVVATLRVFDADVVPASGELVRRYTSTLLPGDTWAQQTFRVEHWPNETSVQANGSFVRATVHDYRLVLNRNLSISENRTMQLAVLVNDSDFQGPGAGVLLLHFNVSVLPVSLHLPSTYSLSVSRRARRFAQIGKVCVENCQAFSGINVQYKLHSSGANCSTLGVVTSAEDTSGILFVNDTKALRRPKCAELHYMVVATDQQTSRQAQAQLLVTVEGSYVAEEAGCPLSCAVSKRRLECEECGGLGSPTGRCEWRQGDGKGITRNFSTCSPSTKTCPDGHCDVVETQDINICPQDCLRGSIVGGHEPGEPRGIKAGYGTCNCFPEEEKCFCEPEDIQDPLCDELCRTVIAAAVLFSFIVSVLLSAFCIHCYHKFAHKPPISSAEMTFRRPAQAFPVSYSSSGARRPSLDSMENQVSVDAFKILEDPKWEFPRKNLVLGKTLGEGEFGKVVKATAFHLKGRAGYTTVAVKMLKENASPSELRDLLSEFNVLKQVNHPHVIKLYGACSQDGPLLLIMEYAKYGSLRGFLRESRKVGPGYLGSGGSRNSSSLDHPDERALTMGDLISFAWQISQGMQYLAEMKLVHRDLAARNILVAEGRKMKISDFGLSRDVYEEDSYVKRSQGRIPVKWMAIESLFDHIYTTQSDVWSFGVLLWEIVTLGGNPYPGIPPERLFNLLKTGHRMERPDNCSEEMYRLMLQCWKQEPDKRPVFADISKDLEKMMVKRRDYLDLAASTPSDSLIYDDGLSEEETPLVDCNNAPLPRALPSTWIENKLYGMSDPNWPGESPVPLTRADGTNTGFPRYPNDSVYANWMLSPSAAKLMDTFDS

[11] = target: Proto-oncogene tyrosine-protein kinase receptor Ret (Homo sapiens) (UniProt P07949); assay: Inhibition of human Ret at 10 uM after 60 mins by TR-FRET assay; values are per cent of control
Proto-oncogene tyrosine-protein kinase receptor Ret (Homo sapiens), sequence (P07949 whole entry): as the sequence (P07949 whole entry V804M) above, with M804V counted along it

[12] = target: Dual specificity mitogen-activated protein kinase kinase 1 (Homo sapiens) (UniProt Q02750); assay: Inhibition of human MEK1 at 10 uM after 60 mins by TR-FRET assay; values are per cent of control
[13] = target: G protein-coupled receptor kinase 6 (Homo sapiens) (UniProt P43250); assay: Inhibition of human GRK6 at 10 uM after 60 mins by TR-FRET assay; values are per cent of control
[14] = target: Protein kinase C eta type (Homo sapiens) (UniProt P24723); assay: Inhibition of human PKCeta at 10 uM after 60 mins by TR-FRET assay; values are per cent of control
[15] = target: Mitogen-activated protein kinase kinase kinase 9 (Homo sapiens) (UniProt P80192); assay: Inhibition of human MLK1 at 10 uM after 60 mins by TR-FRET assay; values are per cent of control
[16] = system: Epidermal growth factor receptor (Homo sapiens), P00533 [L858R]; assay: Inhibition of human EGFR L858R mutant at 10 uM after 60 mins by TR-FRET assay; format: protein assay; settings: values are per cent of control
Epidermal growth factor receptor (Homo sapiens), P00533 [L858R], sequence (P00533 whole entry L858R): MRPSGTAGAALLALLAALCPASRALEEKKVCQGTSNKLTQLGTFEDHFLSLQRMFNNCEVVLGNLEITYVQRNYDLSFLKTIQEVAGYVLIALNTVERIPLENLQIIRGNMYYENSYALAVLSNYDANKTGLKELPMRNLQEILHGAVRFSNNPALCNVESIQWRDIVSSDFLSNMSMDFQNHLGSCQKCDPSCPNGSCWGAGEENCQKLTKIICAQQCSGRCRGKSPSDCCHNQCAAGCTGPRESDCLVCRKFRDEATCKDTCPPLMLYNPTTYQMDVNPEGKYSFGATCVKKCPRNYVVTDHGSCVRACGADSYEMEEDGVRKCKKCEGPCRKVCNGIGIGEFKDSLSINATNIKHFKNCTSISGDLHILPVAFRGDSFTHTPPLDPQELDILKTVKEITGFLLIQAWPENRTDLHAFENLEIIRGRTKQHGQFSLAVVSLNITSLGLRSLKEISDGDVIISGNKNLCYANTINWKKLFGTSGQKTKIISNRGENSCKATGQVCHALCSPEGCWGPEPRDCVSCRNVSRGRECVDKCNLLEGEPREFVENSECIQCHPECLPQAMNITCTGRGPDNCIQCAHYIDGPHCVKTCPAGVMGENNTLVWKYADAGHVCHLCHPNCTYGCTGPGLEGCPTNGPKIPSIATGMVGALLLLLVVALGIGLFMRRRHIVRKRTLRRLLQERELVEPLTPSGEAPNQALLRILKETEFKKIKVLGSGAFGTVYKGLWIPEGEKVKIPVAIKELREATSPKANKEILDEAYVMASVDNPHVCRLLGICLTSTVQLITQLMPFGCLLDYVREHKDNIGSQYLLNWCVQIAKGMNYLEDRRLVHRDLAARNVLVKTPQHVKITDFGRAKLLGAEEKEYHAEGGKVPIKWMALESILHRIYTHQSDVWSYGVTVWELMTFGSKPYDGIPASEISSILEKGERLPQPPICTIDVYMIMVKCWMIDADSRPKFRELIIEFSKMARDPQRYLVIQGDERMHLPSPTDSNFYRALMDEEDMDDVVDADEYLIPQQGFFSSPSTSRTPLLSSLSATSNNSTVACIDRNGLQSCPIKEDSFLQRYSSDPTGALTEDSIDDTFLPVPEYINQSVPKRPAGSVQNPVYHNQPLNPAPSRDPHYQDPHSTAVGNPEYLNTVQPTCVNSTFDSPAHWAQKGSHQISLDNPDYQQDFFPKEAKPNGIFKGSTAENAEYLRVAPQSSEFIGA

[17] = system: Mast/stem cell growth factor receptor Kit (Homo sapiens), P10721 [V654A]; assay: Inhibition of human c-Kit V654A mutant at 10 uM after 60 mins by TR-FRET assay; values are per cent of control
[18] = target: Rho-associated protein kinase 1 (Homo sapiens) (UniProt Q13464); assay: Inhibition of human ROCK-1 at 10 uM after 60 mins by TR-FRET assay; values are per cent of control
Rho-associated protein kinase 1 (Homo sapiens), sequence (Q13464 2-1354 limits assumed): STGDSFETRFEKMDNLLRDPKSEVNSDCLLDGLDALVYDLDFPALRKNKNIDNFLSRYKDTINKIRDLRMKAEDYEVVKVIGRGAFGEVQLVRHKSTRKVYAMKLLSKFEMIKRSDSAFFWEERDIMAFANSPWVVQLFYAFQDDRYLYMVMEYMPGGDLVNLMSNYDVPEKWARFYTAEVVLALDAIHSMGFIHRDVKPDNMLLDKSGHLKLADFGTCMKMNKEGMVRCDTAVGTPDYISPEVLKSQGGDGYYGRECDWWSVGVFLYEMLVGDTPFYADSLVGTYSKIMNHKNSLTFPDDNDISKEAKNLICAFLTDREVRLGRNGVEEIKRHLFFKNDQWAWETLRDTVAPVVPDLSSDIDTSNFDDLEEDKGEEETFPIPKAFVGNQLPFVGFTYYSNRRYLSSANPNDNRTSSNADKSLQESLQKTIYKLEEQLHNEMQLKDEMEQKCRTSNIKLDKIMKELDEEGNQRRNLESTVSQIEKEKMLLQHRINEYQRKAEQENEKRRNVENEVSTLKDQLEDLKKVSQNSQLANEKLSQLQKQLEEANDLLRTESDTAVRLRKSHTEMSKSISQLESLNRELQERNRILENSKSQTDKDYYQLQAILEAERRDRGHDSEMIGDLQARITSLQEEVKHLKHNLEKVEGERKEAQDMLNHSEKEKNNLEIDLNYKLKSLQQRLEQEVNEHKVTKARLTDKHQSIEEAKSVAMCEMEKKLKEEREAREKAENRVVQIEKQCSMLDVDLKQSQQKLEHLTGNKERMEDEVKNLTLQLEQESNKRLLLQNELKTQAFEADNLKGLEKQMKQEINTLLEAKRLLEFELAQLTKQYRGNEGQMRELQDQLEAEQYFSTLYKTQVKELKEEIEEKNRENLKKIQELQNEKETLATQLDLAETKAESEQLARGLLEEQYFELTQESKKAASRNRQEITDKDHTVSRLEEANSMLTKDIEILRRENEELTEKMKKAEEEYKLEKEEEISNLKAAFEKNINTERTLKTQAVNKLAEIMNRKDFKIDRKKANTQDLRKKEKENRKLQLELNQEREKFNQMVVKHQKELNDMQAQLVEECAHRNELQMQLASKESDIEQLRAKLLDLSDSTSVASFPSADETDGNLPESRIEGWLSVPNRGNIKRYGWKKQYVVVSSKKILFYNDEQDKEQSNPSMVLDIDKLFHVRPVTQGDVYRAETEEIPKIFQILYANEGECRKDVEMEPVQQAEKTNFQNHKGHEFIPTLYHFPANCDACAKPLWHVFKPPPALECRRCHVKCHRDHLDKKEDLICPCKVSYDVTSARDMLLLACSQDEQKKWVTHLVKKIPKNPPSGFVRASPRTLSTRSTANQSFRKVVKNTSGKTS

[19] = target: Tyrosine-protein kinase FRK (Homo sapiens) (UniProt P42685); assay: Inhibition of human PTK5 at 10 uM after 60 mins by TR-FRET assay; values are per cent of control
Tyrosine-protein kinase FRK (Homo sapiens), sequence (P42685 whole entry): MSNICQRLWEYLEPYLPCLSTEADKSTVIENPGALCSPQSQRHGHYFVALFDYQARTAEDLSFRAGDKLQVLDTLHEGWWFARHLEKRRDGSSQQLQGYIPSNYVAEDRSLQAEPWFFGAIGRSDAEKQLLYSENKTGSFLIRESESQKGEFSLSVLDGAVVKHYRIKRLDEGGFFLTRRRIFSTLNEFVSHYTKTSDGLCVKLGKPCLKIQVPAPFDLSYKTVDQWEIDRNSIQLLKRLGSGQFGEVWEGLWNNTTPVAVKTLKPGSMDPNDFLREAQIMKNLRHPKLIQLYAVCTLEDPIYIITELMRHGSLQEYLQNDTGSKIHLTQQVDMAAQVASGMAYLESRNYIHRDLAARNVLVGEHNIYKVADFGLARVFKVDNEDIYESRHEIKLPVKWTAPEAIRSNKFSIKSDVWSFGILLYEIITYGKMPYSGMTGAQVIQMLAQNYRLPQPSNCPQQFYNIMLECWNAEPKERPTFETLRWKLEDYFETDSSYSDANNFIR

[20] = target: cGMP-dependent protein kinase 1 (Homo sapiens) (UniProt Q13976); assay: Inhibition of human PKG1alpha at 10 uM after 60 mins by TR-FRET assay; values are per cent of control
[21] = target: Serine/threonine-protein kinase 17B (Homo sapiens) (UniProt O94768); assay: Inhibition of human DYRK2 at 10 uM after 60 mins by TR-FRET assay; values are per cent of control
[22] = target: Tyrosine-protein kinase HCK (Homo sapiens) (UniProt P08631); assay: Inhibition of human Hck at 10 uM after 60 mins by TR-FRET assay; values are per cent of control
[23] = target: Ephrin type-B receptor 4 (Homo sapiens) (UniProt P54760); assay: Inhibition of human EphB4 at 10 uM after 60 mins by TR-FRET assay; values are per cent of control
[24] = target: Tyrosine-protein kinase ABL1 (Homo sapiens) (UniProt P00519); assay: Inhibition of human Abl at 10 uM after 60 mins by TR-FRET assay; values are per cent of control

`S=c1[nH]nc(-c2ccncc2)n1-c1ccc2ccccc2c1` was tested, and the residual activity [1] was 100%, the residual activity [2] was 102% and the residual activity [3] was 94%. For the same compound, the residual activity [4] was 99%, the residual activity [5] was 98% and the residual activity [6] was 112%. It also gave a residual activity [7] of 102%, a residual activity [8] of 110% and a residual activity [9] of 105%. It also gave a residual activity [10] of 116%, a residual activity [11] of 108% and a residual activity [12] of 110%. The residual activity [13] was 108%, the residual activity [14] was 107% and the residual activity [15] was 109%. For the same compound, the residual activity [16] was 75%, the residual activity [17] was 112% and the residual activity [18] was 110%. The residual activity [19] was 98%, the residual activity [20] was 108% and the residual activity [21] was 104%. It also gave a residual activity [22] of 112%, a residual activity [23] of 108% and a residual activity [24] of 113%.
